In patent publication US6387950B2, “Treatment of tumors with RARα selective retinoid compounds in combination with other anti-tumor agents” (Allergan Sales, Inc., priority 2000, dated 2002) one finds Kd data, which are given here for one molecule.

This test deals with T1, RARα receptors (Homo sapiens, UniProt P10276).
T1 construct: made in house; used as extract protein
T1 sequence (P10276 1-462): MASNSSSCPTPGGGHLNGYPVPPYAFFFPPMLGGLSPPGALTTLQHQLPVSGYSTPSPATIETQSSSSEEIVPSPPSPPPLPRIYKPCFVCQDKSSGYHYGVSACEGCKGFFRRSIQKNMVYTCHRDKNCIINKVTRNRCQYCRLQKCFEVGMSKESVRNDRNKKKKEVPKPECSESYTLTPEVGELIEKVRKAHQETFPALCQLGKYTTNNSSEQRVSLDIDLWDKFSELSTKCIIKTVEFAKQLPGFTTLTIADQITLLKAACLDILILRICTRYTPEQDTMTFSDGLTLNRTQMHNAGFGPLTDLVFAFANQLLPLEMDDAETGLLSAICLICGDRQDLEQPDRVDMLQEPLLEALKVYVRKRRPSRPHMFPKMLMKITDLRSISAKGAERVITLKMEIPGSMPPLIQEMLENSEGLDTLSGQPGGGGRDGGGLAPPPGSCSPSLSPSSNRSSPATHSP
Kind of test: ligand binding assay. The settings on record: receptor read as RARα from the sentence. As to the method:
All binding assays were performed in a similar fashion. All six receptor types were derived from the expressed receptor type (RAR α, β, γ and RXR α, β, γ) expressed in Baculovirus. Stock solutions of all compounds were prepared as 10 mM ethanol solutions and serial dilutions carried out into 1:1 DMSO; ethanol. Assay buffers consisted of the following for all six receptor assays: 8% glycerol. 120 mM KCl. 8 mM Tris. 5 mM CHAPS 4 mM DTT and 0.24 mM PMSF. pH-7.4@room temperature.
All receptor biding assays were performed in the same manner. The final assay volume was 250 μl and contained from 10-40 μg of extract protein depending on receptor being assayed along with 5 nM of [^3H] all-trans retinoic acid or 10 nM [^3H] 9-cis retinoic acid and varying concentrations of competing ligand at concentrations that ranged from 0-10^−5M. The assays were formatted for a 96 well minitube system. Incubations were carried out at 4° C. until equilibrium was achieved. […] The amount of receptor-ligand complex was determined by liquid scintillation counting of hydroxyapitite pellet.
After correcting for non-specific binding, IC50 values were determined. […] The IC50 value was determined graphically from a loglogit plot of the data. The […] were determined by application of the Cheng-Prussof equation to the IC50 values, the labeled ligand concentration and the Kd of the labeled ligand. […]

One may read the Kd as the free concentration of one partner at which half of the binding sites on the other are occupied at equilibrium, for simple one-to-one binding.

In the case of `CC1(C)CCC(C)(C)c2c1cc(C(=O)Nc1cc(F)c(C(=O)O)c(F)c1)c(O)c2Cl` [Compound 2, 2,6-Difluoro-4-[(3-hydroxy-4-chloro-5,5,8 8-tetramethyl-5,6,7,8-tetrahydronaphthalene-2-carbonyl) -amino]-benzoic acid], binding was characterised by a dissociation constant (Kd) of 5 nM.
